Active and inactive are the calls of the source.
Tests used:
[1] = luciferase reporter signal suppression in cells – H4 neuroglioma cells, luminescence, dose response (AID 1990); format: functional, cell-based
Bcl-2-related protein A1 = molecular target: T1, Bcl-2-related protein A1 (Mus musculus, UniProt Q07440); format: functional;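 also: confirmatory dose–response counterscreen on Bfl-1, used to check hits from a UBC13 polyubiquitin inhibitor campaign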
T1 sequence (Q07440 whole entry): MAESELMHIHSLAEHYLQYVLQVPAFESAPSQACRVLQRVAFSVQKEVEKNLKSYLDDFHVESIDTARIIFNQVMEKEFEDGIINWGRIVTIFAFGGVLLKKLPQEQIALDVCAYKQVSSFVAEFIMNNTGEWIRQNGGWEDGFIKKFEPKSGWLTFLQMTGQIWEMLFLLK

HepG2 = test: viability loss in HepG2 hepatoma cells – cell-based, cherry-picks, set 2, cytotoxicity control, dose response (AID 687002); format: functional; details: Homo sapiens
[2] = viability loss in THP-1 monocytes – THP-1 cells, cytotoxicity control for Vif-APOBEC3G degradation inhibitor project, dose response (AID 1117359); format: functional; details: THP-1
[3] = NIH-3T3 fibroblast cytotoxicity, dose response, cytotoxicity control, cell-based, fluorescence, Alamar Blue, secondary assay (AID 2327); format: functional;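 also: NIH-3T3 mouse fibroblasts cultured with fluconazole at 8 µg/mL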
Genome polyprotein = Genome polyprotein (dengue virus type 2, UniProt P29990); test: flavivirus cap methylation enzyme inhibition – biochemical, confirmation dose response, primary screen (AID 588689); format: functional
[4] = molecular target: T2, Sentrin-specific protease 6 (Homo sapiens, UniProt Q9GZR1); format: functional;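 also: Luminescence-based dose-response confirmatory assay of SENP6 inhibition, following up an ultra-high-throughput screen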
T2 sequence (Q9GZR1 whole entry): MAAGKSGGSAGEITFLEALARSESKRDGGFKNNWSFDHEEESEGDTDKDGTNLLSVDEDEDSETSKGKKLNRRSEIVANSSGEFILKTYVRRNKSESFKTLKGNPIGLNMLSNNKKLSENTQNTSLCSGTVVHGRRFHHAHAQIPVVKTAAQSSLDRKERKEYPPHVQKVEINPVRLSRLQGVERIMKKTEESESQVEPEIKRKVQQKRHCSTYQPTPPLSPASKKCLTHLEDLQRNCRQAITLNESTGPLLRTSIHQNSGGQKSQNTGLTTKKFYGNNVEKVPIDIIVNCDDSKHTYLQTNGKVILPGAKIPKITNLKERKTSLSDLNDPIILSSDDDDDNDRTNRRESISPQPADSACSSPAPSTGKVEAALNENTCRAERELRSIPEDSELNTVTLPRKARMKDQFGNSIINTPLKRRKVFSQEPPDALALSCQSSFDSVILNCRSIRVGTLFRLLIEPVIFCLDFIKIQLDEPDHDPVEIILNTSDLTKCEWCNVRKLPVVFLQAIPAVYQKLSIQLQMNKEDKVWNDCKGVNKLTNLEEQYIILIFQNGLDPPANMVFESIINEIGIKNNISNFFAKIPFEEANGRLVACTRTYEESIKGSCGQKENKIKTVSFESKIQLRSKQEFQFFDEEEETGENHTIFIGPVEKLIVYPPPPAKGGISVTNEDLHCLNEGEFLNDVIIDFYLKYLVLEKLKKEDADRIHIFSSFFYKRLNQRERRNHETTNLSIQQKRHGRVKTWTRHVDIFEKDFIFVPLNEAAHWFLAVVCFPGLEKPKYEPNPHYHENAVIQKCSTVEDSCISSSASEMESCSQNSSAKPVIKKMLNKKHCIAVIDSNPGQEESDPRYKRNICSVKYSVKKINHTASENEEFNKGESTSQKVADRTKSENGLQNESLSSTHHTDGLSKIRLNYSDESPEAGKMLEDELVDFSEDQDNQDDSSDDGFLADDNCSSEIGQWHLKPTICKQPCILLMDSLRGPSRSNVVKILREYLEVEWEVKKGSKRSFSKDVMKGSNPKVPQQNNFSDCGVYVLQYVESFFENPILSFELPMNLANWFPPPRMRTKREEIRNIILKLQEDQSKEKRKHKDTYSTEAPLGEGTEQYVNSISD

[5] = molecular target: T3, Sentrin-specific protease 8 (Homo sapiens, UniProt Q96LD8); format: functional;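 also: luminescence read-out of SENP8 inhibition, dose-response confirmation following an ultra-high-throughput screen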
T3 sequence (Q96LD8 whole entry): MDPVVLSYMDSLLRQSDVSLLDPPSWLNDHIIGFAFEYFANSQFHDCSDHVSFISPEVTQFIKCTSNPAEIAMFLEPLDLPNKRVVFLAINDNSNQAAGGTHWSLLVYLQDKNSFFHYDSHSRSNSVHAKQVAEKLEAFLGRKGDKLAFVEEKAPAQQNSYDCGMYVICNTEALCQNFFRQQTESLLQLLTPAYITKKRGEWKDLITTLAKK

[6] = molecular target: Peroxisome proliferator-activated receptor gamma/Nuclear receptor corepressor 2 (Homo sapiens, UniProt P37231+Q9Y618); format: functional
[7] = molecular target: T4, Dual specificity protein phosphatase 6 (Rattus norvegicus, UniProt Q64346); test: inhibition of rat DUSP6 enzyme activity – biochemical, in vitro, primary screen (AID 425)
T4 sequence (Q64346 whole entry): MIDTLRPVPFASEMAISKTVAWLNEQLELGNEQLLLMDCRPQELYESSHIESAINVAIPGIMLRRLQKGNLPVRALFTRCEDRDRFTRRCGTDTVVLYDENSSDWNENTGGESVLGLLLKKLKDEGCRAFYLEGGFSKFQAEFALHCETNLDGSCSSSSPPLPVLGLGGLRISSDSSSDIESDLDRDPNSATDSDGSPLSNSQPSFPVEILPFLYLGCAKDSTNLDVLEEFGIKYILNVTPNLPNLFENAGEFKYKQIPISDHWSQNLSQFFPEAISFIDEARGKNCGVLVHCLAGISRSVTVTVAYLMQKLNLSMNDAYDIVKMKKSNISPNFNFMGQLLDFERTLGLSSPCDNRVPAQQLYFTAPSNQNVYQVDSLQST

[8] = NIH3T3 cell viability loss – ATP luminescence, mouse fibroblasts, counter-screen, dose response (AID 2010); format: functional, cell-based;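 also: cells exposed to compound for about 90 hours before reading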
Streptokinase A = molecular target: T5, Streptokinase A (Streptococcus pyogenes serotype M1, UniProt P10520); test: viability-normalized secreted streptokinase activity reduction – plasminogen activation absorbance, OD405, dose response (AID 1914); format: functional, Streptococcus pyogenes M1 GAS;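 also: secreted streptokinase activity via plasminogen activation per viability signal from cell pellet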
T5 sequence (P10520 whole entry): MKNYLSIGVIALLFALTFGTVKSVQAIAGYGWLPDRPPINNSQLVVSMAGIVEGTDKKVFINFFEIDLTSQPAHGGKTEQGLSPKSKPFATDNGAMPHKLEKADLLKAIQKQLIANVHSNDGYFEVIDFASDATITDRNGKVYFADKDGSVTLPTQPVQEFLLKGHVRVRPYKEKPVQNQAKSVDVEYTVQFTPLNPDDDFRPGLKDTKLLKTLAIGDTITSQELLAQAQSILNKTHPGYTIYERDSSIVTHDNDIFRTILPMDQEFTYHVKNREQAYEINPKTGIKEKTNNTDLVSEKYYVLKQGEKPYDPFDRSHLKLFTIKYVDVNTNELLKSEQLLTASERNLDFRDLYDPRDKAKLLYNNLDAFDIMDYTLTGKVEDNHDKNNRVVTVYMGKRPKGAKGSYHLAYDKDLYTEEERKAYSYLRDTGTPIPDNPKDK

Chain of Peroxisome proliferator-activated receptor gamma/Nuclear receptor corepressor 2 (P37231 whole entry): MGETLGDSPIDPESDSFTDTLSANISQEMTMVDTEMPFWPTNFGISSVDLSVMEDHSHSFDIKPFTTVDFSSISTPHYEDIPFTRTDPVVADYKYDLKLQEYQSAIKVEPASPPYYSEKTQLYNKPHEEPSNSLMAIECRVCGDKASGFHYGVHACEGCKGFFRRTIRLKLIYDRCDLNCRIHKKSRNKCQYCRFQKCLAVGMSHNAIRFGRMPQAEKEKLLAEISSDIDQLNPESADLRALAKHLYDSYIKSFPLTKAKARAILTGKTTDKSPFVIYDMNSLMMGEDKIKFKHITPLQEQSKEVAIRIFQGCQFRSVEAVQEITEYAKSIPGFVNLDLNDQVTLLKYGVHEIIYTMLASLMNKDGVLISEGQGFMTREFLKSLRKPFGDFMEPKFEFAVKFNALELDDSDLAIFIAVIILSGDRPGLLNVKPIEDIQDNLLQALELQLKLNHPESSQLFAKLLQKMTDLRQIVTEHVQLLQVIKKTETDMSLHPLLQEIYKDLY
Chain of Peroxisome proliferator-activated receptor gamma/Nuclear receptor corepressor 2 (Q9Y618 whole entry): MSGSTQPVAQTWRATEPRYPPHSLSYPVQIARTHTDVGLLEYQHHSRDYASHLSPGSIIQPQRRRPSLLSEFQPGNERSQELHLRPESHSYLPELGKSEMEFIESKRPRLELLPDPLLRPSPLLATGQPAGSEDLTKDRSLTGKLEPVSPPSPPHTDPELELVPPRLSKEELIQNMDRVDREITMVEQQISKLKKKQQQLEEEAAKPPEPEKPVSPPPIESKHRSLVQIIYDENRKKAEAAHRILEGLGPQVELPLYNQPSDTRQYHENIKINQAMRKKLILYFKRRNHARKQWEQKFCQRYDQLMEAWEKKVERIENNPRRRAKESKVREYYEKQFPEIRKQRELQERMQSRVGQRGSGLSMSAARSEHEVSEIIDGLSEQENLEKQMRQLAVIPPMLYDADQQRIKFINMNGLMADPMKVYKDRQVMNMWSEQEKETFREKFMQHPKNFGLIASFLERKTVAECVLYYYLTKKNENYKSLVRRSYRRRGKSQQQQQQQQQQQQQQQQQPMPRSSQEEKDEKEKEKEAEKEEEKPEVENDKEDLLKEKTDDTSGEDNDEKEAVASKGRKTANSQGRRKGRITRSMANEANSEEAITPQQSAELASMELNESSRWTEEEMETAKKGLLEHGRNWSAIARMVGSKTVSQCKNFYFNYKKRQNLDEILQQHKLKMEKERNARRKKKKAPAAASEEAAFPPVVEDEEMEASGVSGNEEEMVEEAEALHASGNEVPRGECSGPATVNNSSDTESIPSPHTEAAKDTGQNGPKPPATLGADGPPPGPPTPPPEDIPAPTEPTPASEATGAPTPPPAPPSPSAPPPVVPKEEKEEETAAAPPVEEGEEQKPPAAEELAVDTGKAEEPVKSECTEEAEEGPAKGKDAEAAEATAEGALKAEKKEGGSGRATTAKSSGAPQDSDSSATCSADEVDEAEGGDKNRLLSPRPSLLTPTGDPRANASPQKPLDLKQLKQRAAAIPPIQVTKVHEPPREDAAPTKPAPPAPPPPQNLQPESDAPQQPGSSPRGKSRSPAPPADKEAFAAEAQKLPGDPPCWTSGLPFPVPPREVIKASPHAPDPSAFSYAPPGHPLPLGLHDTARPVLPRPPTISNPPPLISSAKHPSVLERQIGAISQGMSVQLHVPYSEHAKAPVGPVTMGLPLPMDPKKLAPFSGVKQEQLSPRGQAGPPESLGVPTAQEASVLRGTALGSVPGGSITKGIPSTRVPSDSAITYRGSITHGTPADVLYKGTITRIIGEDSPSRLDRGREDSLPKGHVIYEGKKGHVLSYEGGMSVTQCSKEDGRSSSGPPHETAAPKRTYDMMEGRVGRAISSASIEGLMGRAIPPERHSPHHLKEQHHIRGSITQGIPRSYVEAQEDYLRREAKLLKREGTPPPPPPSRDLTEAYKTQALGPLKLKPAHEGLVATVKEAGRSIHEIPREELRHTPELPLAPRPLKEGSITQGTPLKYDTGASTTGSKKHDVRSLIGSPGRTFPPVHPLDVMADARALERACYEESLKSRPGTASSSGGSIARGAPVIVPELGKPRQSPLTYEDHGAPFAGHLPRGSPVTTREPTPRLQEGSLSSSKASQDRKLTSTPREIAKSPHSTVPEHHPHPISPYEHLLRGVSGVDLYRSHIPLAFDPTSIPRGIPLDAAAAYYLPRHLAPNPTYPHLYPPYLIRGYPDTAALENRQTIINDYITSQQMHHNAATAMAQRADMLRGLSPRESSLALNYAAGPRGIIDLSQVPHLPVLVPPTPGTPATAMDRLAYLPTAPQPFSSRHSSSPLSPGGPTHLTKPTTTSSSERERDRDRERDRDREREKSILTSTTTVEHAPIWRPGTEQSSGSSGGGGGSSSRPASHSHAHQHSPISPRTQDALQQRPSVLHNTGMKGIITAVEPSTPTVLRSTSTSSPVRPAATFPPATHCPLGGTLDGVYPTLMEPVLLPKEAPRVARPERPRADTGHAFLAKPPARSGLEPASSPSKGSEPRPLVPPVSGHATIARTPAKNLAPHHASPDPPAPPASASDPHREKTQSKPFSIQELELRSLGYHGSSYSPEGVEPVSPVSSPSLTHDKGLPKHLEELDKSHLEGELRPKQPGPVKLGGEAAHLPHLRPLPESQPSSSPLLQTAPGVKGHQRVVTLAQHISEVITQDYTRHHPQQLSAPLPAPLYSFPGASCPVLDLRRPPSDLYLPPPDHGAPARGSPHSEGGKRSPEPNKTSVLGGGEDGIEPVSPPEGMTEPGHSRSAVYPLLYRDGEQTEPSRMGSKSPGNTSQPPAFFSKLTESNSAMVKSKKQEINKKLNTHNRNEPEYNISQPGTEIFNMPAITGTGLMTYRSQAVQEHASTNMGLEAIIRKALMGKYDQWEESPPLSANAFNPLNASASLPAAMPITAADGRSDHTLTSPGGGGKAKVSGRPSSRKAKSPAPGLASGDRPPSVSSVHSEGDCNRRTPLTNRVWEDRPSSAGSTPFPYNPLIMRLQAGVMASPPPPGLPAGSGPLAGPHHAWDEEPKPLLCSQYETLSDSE
Chain of Genome polyprotein (P29990 2492-3391 limits assumed): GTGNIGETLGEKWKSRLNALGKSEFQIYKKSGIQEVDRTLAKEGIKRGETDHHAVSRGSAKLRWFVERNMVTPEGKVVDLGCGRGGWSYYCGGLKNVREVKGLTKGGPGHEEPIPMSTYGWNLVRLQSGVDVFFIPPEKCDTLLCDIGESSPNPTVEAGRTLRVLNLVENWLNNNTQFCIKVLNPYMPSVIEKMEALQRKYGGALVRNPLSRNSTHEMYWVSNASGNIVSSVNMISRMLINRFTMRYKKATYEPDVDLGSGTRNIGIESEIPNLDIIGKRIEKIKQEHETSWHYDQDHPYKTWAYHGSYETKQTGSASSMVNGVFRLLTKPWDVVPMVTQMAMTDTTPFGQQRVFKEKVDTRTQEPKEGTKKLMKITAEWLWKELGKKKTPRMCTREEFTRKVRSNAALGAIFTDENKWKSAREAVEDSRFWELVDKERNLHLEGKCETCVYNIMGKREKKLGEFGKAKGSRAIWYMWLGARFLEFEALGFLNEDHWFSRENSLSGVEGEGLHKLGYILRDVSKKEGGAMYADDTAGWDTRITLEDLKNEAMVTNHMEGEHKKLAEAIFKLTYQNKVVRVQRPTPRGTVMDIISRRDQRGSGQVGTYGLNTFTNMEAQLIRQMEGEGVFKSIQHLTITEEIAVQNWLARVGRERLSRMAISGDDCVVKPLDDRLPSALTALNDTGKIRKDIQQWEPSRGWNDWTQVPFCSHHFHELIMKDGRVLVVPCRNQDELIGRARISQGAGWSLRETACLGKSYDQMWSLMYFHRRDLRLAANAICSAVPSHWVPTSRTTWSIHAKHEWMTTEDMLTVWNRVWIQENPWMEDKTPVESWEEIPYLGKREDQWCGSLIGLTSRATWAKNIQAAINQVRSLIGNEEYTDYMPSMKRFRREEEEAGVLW

## CCOC(=O)c1c(-c2ccc(-c3ccccc3)cc2)csc1NC(=O)CNCCN(C)C
[1]
  EC50: > 120 µM (not active)
Bcl-2-related protein A1
  IC50: > 20 µM (inactive)
HepG2
  AC50: 18.4 µM (active)

## COc1cc(-c2nnc(SCc3cc(=O)oc4cc(O)c(O)cc34)o2)cc(OC)c1OC
[2]
  CC50: > 40 µM (active)
[3]
  EC50: > 150 µM (inactive)
Genome polyprotein
  IC50: > 100 µM (active)

## N#Cc1c(NC(=O)c2ccc(Br)o2)n(-c2ccccc2)c2nc3ccccc3nc12
[4]
  IC50: 2.03 µM (active)
[5]
  IC50: 4.55 µM (active)
[6]
  IC50: 5.08 µM (active)
[7]
  IC50: 96.9 µM (active)

## CCCCCCCCCCOC(=O)Cn1c(COc2ccccc2)[n+](C)c2ccccc21
[8]
  EC50: > 60 µM (not active)
Streptokinase A
  EC50: > 150 µM (not active)
